Measurements from patent US20210085711A1 (Japan Tobacco Inc., priority 2017, published 2021).
Where two headings read alike, the source gives them in different places.

How the values were obtained:
[1] = test system: patients with hypermenorrhea and/or patients with hypermenorrhea-associated gynecologic diseases (iron-deficiency anemia patients); details: for Hb change, End of administration, Mean: change from baseline; for Williams test, Mean of change amount from the baseline at the end of administration, JTT-751-placebo: difference to placebo
Method: (§1) This test was a three-stage safety and efficacy clinical trial at multi-facilities. The first stage was a pre-observation period (Day −40 to Day −1), the second stage was an administration period (Day 1 to Day 48) (efficacy and safety evaluation period), and the third stage was a post-observation period (Day 49 to Day 63) (efficacy and safety evaluation period). The safety evaluation and efficacy evaluation were performed by multi-facility collaboration, placebo control, random allocation, double-blind trial, and parallel group comparison test.
(§2) The administration period of the trial drug is seven weeks which starts from the next day of the Week 0 visit to the day before the Week 7 visit, provided that the trial drug is not taken on the scheduled Week 3 visit.
Amount of change in blood hemoglobin value (Hb) from Week 0 at the end of administration
The mean of each administration group is used as a placebo group (μ1), a 250 mg group (μ2), a 500 mg group (μ3), a 1000 mg group (μ4), a 1500 mg group (μ5).
(§3) The blood hemoglobin value (Hb), the serum iron level, the serum ferritin value, the total iron-binding capacity (TIBC) and the transferrin saturation rate (TSAT), and the mean corpuscular volume (MCV) were each examined at the observation start date, Week 0, Week 3, Week 7, the end of administration and the consultation at nine weeks after Week 0; the hepcidin concentration (Hepcidin 25) and the serum soluble transferrin receptor concentration (sTfR) were each examined on Week 0, Week 3 and Week 7 and at the end of administration; and the C-terminal FGF23 value (cFGF23) and the intact FGF23 value (iFGF23) were each examined on Week 0 and Week 7 and at the end of administration.

[2] = test system: patients with hypermenorrhea and/or patients with hypermenorrhea-associated gynecologic diseases (iron-deficiency anemia patients); assay: Phase II clinical trial of JTT-751: mean corpuscular volume value (MCV); assay type: in vivo, human
Method: as §1
(1) Japanese patients who are 20 or more and less than 65 years old at the time of agreement and can visit an outpatient clinic (2) Patients who have an Hb value (measured using HemoCue® Hb 201 DM analyzer in the institute of clinical practice) of 7.0 g/dL or more and less than 11.0 g/dL on both the observation start date and Week 0, and the difference between the two days is 1.0 g/dL or less (3) Patients with a TIBC of 360 μg/dL or more or a serum ferritin value of less than 12 ng/mL on the observation start date
as §2
(2) Subsidiary evaluation items 1) Erythrocyte-related examination values and amount of change from Week 0 at each observation date 2) Iron-related test values and amount of change from Week 0 at each observation date 3) Achievement rate of target Hb value (female; 12.0 g/dL or more, male; 13.0 g/dL or more) at each observation date 4) Achievement rate of 1.0 g/dL or more and achievement rate of 2.0 g/dL or more in Hb value improvement from Week 0 at each observation date 5) Average daily change of Hb value from Week 0 to each observation date
as §3

[3] = 9 weeks after Week 0, JTT-751 250 mg group
[4] = 9 weeks after Week 0, JTT-751 500 mg group
[5] = 9 weeks after Week 0, JTT-751 1000 mg group
[6] = 9 weeks after Week 0, JTT-751 1500 mg group
[7] = Administration start date, JTT-751 250 mg group
[8] = Administration start date, JTT-751 500 mg group
[9] = Administration start date, JTT-751 1000 mg group
[10] = Administration start date, JTT-751 1500 mg group
[11] = End of administration, JTT-751 250 mg group
[12] = End of administration, JTT-751 500 mg group
[13] = End of administration, JTT-751 1000 mg group
[14] = End of administration, JTT-751 1500 mg group
[15] = Week 0 (baseline), JTT-751 250 mg group
[16] = Week 0 (baseline), JTT-751 500 mg group
[17] = Week 0 (baseline), JTT-751 1000 mg group
[18] = Week 0 (baseline), JTT-751 1500 mg group

Substance: Ferric citrate [JTT-751]
- Hb measured value, Base line, Mean ([1]; 250 mg/day): 9.47 g/dL
- Hb measured value, End of administration, Mean ([1]; 250 mg/day): 11.72 g/dL
- Williams test, Mean of change amount from the baseline at the end of administration, Mean ([1]; 250 mg/day): 2.25 g/dL
- Hb, Median ([1]; 250 mg/day, 9 weeks after Week 0): 11.60 g/dL
- Hb, Median ([1]; 250 mg/day, End of administration): 11.80 g/dL
- Hb, Median ([1]; 250 mg/day, Observation start date (before administration)): 9.55 g/dL
- Hb, Median ([1]; 250 mg/day, Week 0 (baseline)): 9.80 g/dL
- Hb, Median ([1]; 250 mg/day, Week 3): 10.75 g/dL
- Hb, Median ([1]; 250 mg/day, Week 7): 11.80 g/dL
- Hb change, End of administration, Mean ([1]; 250 mg/day): 2.25 g/dL
- Williams test, Mean of change amount from the baseline at the end of administration, JTT-751-placebo ([1]; 250 mg/day): 2.50 g/dL
- Hb measured value, Base line, Mean ([1]; 500 mg/day): 8.98 g/dL
- Hb measured value, End of administration, Mean ([1]; 500 mg/day): 11.71 g/dL
- Williams test, Mean of change amount from the baseline at the end of administration, Mean ([1]; 500 mg/day): 2.73 g/dL
- Hb, Median ([1]; 500 mg/day, 9 weeks after Week 0): 11.70 g/dL
- Hb, Median ([1]; 500 mg/day, End of administration): 11.90 g/dL
- Hb, Median ([1]; 500 mg/day, Observation start date (before administration)): 9.30 g/dL
- Hb, Median ([1]; 500 mg/day, Week 0 (baseline)): 8.95 g/dL
- Hb, Median ([1]; 500 mg/day, Week 3): 10.10 g/dL
- Hb, Median ([1]; 500 mg/day, Week 7): 11.90 g/dL
- Hb change, End of administration, Mean ([1]; 500 mg/day): 2.73 g/dL
- Williams test, Mean of change amount from the baseline at the end of administration, JTT-751-placebo ([1]; 500 mg/day): 2.98 g/dL
- Hb measured value, Base line, Mean ([1]; 1000 mg/day): 9.66 g/dL
- Hb measured value, End of administration, Mean ([1]; 1000 mg/day): 12.72 g/dL
- Williams test, Mean of change amount from the baseline at the end of administration, Mean ([1]; 1000 mg/day): 3.05 g/dL
- Hb, Median ([1]; 1000 mg/day, 9 weeks after Week 0): 12.70 g/dL
- Hb, Median ([1]; 1000 mg/day, End of administration): 12.90 g/dL
- Hb, Median ([1]; 1000 mg/day, Observation start date (before administration)): 9.90 g/dL
- Hb, Median ([1]; 1000 mg/day, Week 0 (baseline)): 9.80 g/dL
- Hb, Median ([1]; 1000 mg/day, Week 3): 11.80 g/dL
- Hb, Median ([1]; 1000 mg/day, Week 7): 12.90 g/dL
- Hb change, End of administration, Mean ([1]; 1000 mg/day): 3.05 g/dL
- Williams test, Mean of change amount from the baseline at the end of administration, JTT-751-placebo ([1]; 1000 mg/day): 3.30 g/dL
- Hb measured value, Base line, Mean ([1]; 1500 mg/day): 9.38 g/dL
- Hb measured value, End of administration, Mean ([1]; 1500 mg/day): 12.75 g/dL
- Williams test, Mean of change amount from the baseline at the end of administration, Mean ([1]; 1500 mg/day): 3.37 g/dL
- Hb, Median ([1]; 1500 mg/day, 9 weeks after Week 0): 12.70 g/dL
- Hb, Median ([1]; 1500 mg/day, End of administration): 13.00 g/dL
- Hb, Median ([1]; 1500 mg/day, Observation start date (before administration)): 9.40 g/dL
- Hb, Median ([1]; 1500 mg/day, Week 0 (baseline)): 9.40 g/dL
- Hb, Median ([1]; 1500 mg/day, Week 3): 11.60 g/dL
- Hb, Median ([1]; 1500 mg/day, Week 7): 13.00 g/dL
- Hb change, End of administration, Mean ([1]; 1500 mg/day): 3.37 g/dL
- Williams test, Mean of change amount from the baseline at the end of administration, JTT-751-placebo ([1]; 1500 mg/day): 3.62 g/dL
- blood hemoglobin value, dose dependence ([1]; 250-1500 mg/day): increases along with the dose increase
- blood hemoglobin value, time-dependent change ([1]; Week 0, Week 3 and Week 7): increased along with the continuous administration
- blood hemoglobin value after completion of administration ([1]; nine weeks after Week 0 (two weeks after completion of administration)): did not decrease
- blood hemoglobin value compared to the placebo administration group ([1]; regardless of the dose amount (250-1500 mg/day), end of administration): significantly increase
- MCV, Mean [2, 3]: 78.9 fL
- MCV, Median [2, 3]: 79.0 fL
- MCV, Mean [2, 4]: 80.8 fL
- MCV, Median [2, 4]: 81.0 fL
- MCV, Mean [2, 5]: 83.9 fL
- MCV, Median [2, 5]: 84.0 fL
- MCV, Mean [2, 6]: 82.4 fL
- MCV, Median [2, 6]: 82.5 fL
- MCV, Mean [2, 7]: 71.5 fL
- MCV, Median [2, 7]: 73.0 fL
- MCV, Mean [2, 8]: 71.9 fL
- MCV, Median [2, 8]: 72.0 fL
- MCV, Mean [2, 9]: 72.5 fL
- MCV, Median [2, 9]: 71.0 fL
- MCV, Mean [2, 10]: 71.0 fL
- MCV, Median [2, 10]: 69.0 fL
- MCV, Mean [2, 11]: 78.4 fL
- MCV, Median [2, 11]: 79.5 fL
- MCV, Mean [2, 12]: 79.8 fL
- MCV, Median [2, 12]: 81.0 fL
- MCV, Mean [2, 13]: 82.5 fL
- MCV, Median [2, 13]: 82.0 fL
- MCV, Mean [2, 14]: 81.4 fL
- MCV, Median [2, 14]: 81.0 fL
- MCV, Mean [2, 15]: 70.8 fL
- MCV, Median [2, 15]: 72.0 fL
- MCV, Mean [2, 16]: 70.9 fL
- MCV, Median [2, 16]: 70.5 fL
- MCV, Mean [2, 17]: 72.4 fL
- MCV, Median [2, 17]: 70.0 fL
- MCV, Mean [2, 18]: 70.6 fL
- MCV, Median [2, 18]: 68.0 fL
- mean corpuscular volume value (MCV), time-dependent change ([2]; Week 0, Week 3 and Week 7): increased along with the continuous administration
- MCV, Mean ([2]; Week 3, JTT-751 250 mg group): 73.9 fL
- MCV, Median ([2]; Week 3, JTT-751 250 mg group): 74.0 fL
- MCV, Mean ([2]; Week 3, JTT-751 500 mg group): 75.3 fL
- MCV, Median ([2]; Week 3, JTT-751 500 mg group): 75.0 fL
- MCV, Mean ([2]; Week 3, JTT-751 1000 mg group): 78.3 fL
- MCV, Median ([2]; Week 3, JTT-751 1000 mg group): 77.0 fL
- MCV, Mean ([2]; Week 3, JTT-751 1500 mg group): 76.7 fL
- MCV, Median ([2]; Week 3, JTT-751 1500 mg group): 77.0 fL
- MCV, Mean ([2]; Week 7, JTT-751 250 mg group): 78.4 fL
- MCV, Median ([2]; Week 7, JTT-751 250 mg group): 79.5 fL
- MCV, Mean ([2]; Week 7, JTT-751 500 mg group): 79.8 fL
- MCV, Median ([2]; Week 7, JTT-751 500 mg group): 81.0 fL
- MCV, Mean ([2]; Week 7, JTT-751 1000 mg group): 82.5 fL
- MCV, Median ([2]; Week 7, JTT-751 1000 mg group): 82.0 fL
- MCV, Mean ([2]; Week 7, JTT-751 1500 mg group): 81.4 fL
- MCV, Median ([2]; Week 7, JTT-751 1500 mg group): 81.0 fL
- mean corpuscular volume value (MCV) at the end of administration ([2]; end of administration): a value around the normal value
